This is an account of results in publication PMC6697720, “Saturation of acyl chains converts cardiolipin from an antagonist to an activator of Toll-like receptor-4” (Cellular and Molecular Life Sciences: CMLS, 2019).

Broadly, the IC50 is the concentration needed to halve the response being measured.

Assay [1] addresses T1, human TLR4/MD2/CD14 (Homo sapiens, UniProt O00206+Q9Y6Y9).
T1 construct: expressed in transfected cells; host or cells: HEK293 (ATCC CRL1573), transient transfection with jetPEI
Kind of assay: Inhibition of LPS-induced NF-κB luciferase reporter in HEK293 cells transfected with human TLR4/MD2/CD14. It counts as cell-based. To be noted: for inhibition of LPS-induced signaling (LPS dose-response, 0 to 1000 ng/mL), mode of action: 1 h CL pre-incubation. How it is done:
(§1) Cells were seeded at 4 × 10^4 cells/mL in 96-well plates (200 μL/well) and transiently transfected 4 days later. Expression vectors containing an NF-κB transcription reporter vector-encoding firefly luciferase (10 ng/well pNF-κB-luc from Clontech), and a constitutively active reporter vector-encoding Renilla luciferase (5 ng/well phRG-TK; Promega), together with empty vector (pcDNA3.1 from Invitrogen Cat. N. V79020) and cDNA encoding human membrane CD14 (3 ng/well) and human or murine TLR4 and MD2 (3 ng/well) were mixed with jetPEI (Polyplus transfection Cat.N. 101-10N) and incubated with cells according to the manufacturer’s instructions.
(§2) After treatment supernatants were discarded, cells were washed with PBS and lysed with passive lysis buffer (Promega Cat.N. E1941). Luciferase and Renilla activity on cell lysates were quantified on a BioTek Synergy HT microplate reader using home-made luciferase reagent (20 mM Tricine, 2.67 mM MgSO4·7H2O, 0.265 mM (MgCO3)4Mg(OH)2·5H2O, 0.1 mM EDTA, 33.3 mM DTT, 530 μM ATP, 270 μM Acetyl Coenzyme A (Lithium salt), 470 μM luciferin (Biosynth), pH 7.8, diluted two times in water before use), or coelenterazine (Biosynth) dissolved in ethanol at 1 mg/mL and diluted 500 times in PBS before use as previously described. Firefly and Renilla luciferase activity on cell lysates were normalized, and data were expressed as fold induction as compared to unstimulated conditions.
In contrast to C16:0 and C18:0, C14:0 CL acted as an agonist in murine but not human cells (Fig. 3), a property similar to that of the LPS variant lipid IVa. to establish whether C14:0, like lipid IVa, is a weak human TLR4 antagonist, we tested the ability of all saturated CLs to inhibit signaling induced by LPS over a range of concentrations. For each CL, cells transfected with human TLR4/MD2/CD14 were pre-incubated with medium alone or two different CL concentrations for 1 h, and then washed and incubated for 6 h with increasing amounts of LPS (from 0 to 1000 ng/mL). […] The dose–response curve of LPS was shifted to the right.
(§3) Fig. 6 C14:0 is a competitive human TLR4 antagonist. HEK293 cells were transfected with plasmids encoding hTLR4, hMD2, and hCD14 together with a luciferase reporter plasmid dependent on NF-κB activation and a constitutively active reporter vector-encoding renilla luciferase. Two days after transfection, cells were incubated for 1 h with medium alone or the indicated amount of CLs, then washed and incubated 6 h with increasing amount of LPS. Luciferase and renilla were then quantified in cell lysate, and normalized and reported here as fold induction as compared to control. Each bar represents the mean ± standard deviation of three biological replicates (n = 3). Graphs are representative of at least three independent experiments
as §3, with “7 Unsaturated cardiolipins are” for “6 C14:0 is a”, “antagonists.” for “antagonist.”, “CLs, and” for “CLs,”
To quantify and compare the potency of CLs as inhibitors, we determined IC50 values in HEK293 cells transfected with human TLR4/MD2/CD14, for each of the antagonists (Fig. 8 and Table 1). […]
(In general: A reporter such as luciferase makes a cellular process visible.)

For assay [2], the target named is T2, human TLR4, MD2, and CD14 (Homo sapiens, UniProt O00206+Q9Y6Y9).
T2 construct: expressed in transfected cells; host or cells: HEK293 (ATCC CRL1573), transient transfection with jetPEI
T2 sequence (O00206 24-839): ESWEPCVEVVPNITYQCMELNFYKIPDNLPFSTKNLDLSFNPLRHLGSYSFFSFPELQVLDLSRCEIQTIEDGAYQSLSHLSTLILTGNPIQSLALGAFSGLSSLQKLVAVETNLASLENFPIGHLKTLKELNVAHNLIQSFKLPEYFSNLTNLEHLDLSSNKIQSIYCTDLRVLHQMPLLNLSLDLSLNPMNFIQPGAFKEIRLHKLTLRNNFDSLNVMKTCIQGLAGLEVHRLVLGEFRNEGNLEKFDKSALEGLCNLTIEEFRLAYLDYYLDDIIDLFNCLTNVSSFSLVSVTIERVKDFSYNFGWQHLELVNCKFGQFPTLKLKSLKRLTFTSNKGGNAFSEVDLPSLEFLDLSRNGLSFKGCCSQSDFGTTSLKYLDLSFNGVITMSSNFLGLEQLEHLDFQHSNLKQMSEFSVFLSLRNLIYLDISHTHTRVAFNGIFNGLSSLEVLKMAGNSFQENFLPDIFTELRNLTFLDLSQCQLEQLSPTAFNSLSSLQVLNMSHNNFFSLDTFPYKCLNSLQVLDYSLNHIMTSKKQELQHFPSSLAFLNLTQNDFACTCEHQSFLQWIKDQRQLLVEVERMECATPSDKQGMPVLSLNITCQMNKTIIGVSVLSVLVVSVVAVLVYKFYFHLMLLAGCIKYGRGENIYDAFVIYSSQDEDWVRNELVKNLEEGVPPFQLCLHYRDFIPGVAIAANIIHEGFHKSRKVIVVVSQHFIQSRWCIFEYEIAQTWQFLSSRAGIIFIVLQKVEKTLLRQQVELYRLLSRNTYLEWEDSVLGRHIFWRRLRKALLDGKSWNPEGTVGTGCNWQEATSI
T2 sequence (Q9Y6Y9 19-160): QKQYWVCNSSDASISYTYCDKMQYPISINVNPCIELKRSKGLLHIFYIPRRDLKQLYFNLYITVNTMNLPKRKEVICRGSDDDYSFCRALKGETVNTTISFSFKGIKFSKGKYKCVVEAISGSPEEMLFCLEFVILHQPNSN
Kind of assay: NF-κB luciferase reporter activation by CLs in HEK293 cells transfected with human TLR4, MD2 and CD14. The format is cell-based. The settings on record: for activation of human TLR4 (NF-κB): 6 h incubation. The procedure:
as §1, §2
The first signaling event of these pathways is NF-κB activation through TLR4 activation. To investigate how the individual CD14, TLR4, and MD2 proteins contribute to the responses of cells to CL, we used the HEK transfection model where we can control which protein (including from different species) may be added to the cells and their contribution to CL activation of Nf-κB [21, 30, 31]. We transfected HEK293 cells with human or murine CD14 and MD2 with or without TLR4 and incubated them with saturated CLs for 6 h (Fig. 4a). All three saturated CLs activated murine TLR4. By contrast, only C16:0 and C18:0 activated the human receptor. To further confirm the role of TLR4, we compared TNF-α secretion induced by C14:0 CL in wild-type (WT) or TLR4 knock out (TLR4 KO) immortalized BMDMs. Both LPS and C14:0 CL induced TNF-α secretion in WT but not in TLR4-KO BMDMs (Fig. 4b). TLR4-KO BMDMs were normally responsive to TLR2 ligand Pam3CSK4 (data not shown).
Fig. 4 Saturated CLs are TLR4 agonists. a HEK293 cells were transfected with plasmids encoding murine TLR4, MD2, and CD14 (mTLR4), human TLR4, MD2, and CD14 (hTLR4) or with empty pcDNA3.1 plasmid, MD2 and CD14 (w/o TLR) together with a luciferase reporter plasmid dependent on NF-κB activation and a constitutively active reporter vector-encoding renilla luciferase. Two days after transfection, cells were incubated for 6 h with medium alone (Ctrl) or the indicated amount of CLs or LPS. Luciferase and renilla were quantified in cell lysate, normalized and reported here as fold induction as compared to control. Unpaired t test: differences compared to the control are not significant if p > 0.05(no symbol); *p ≤ 0.005. b WT and TLR4-KO iBMDM cells were incubated overnight with medium (c), LPS or C14:0 CL. For each condition, mTNF-α was measured by ELISA assay. Unpaired t test: differences with respect to the control are not significant if p > 0.05(no symbol); *p ≤ 0.0001. Each bar represents the mean + standard deviation of three biological replicates (n = 3). […]

T1 sequence (O00206 24-839): as the sequence (O00206 24-839) above
T1 sequence (Q9Y6Y9 19-160): as the sequence (Q9Y6Y9 19-160) above

Consider `CCCCCCCCCCCCCC(=O)OC[C@H](COP(=O)(O)OCC(O)COP(=O)(O)OC[C@@H](COC(=O)CCCCCCCCCCCCC)OC(=O)CCCCCCCCCCCCC)OC(=O)CCCCCCCCCCCCC` (some centres unmarked) [C14:0 CL], for which the “inhibition of LPS-induced signaling (LPS dose-response, 0 to 1000 ng/mL), mode of action” value is reported as “competitive inhibitor” in assay [1] (washed, 6 h LPS) and “competitive TLR4 antagonists” in assay [1] (washed, 6 h LPS, listed as C14:0). The concentration for half-maximal inhibition (IC50) is approximately 325 µM in assay [1] (HEK293 hTLR4/hMD2/hCD14, 1 h CL, washed, 6 h LPS, Prism fit of Fig. 8 data) and approximately 300 µM in assay [1] (approx., HEK293 human TLR4/MD2/CD14). For the same compound, the “activation of human TLR4 (NF-κB)” value in assay [2] is “not”.
Take `CCCCCCCCCCCCCCCCCC(=O)OC[C@H](COP(=O)(O)OCC(O)COP(=O)(O)OC[C@@H](COC(=O)CCCCCCCCCCCCCCCCC)OC(=O)CCCCCCCCCCCCCCCCC)OC(=O)CCCCCCCCCCCCCCCCC` (some centres unmarked) [C18:0 CL]: the “inhibition of LPS-induced signaling (LPS dose-response, 0 to 1000 ng/mL), mode of action” value in assay [1] (washed, 6 h LPS) is “did not inhibit”. For the same compound, the “activation of human TLR4 (NF-κB)” value in assay [2] is “activated”. In addition, the “NF-κB induction in HEK293 cells transfected with TLR4 in the absence of CD14 or MD2” value in assay [2] (hTLR4 without CD14 or without MD2, 6 h) was “not induced”.
